Results reported in patent publication US10947213B1 (Merck Patent GmbH, priority 2015, dated 2021).
pIC50: −log10 of the molar value. Where a name gives a salt, the structure may show the parent alone.

Molecular target: T1, TLR7/NFKb HEK cells (Homo sapiens, UniProt Q9NYK1)
T1 construct: expressed in transfected cells; host or cells: HEK cells (TLR7/NFKb reporter line)
T1 sequence (Q9NYK1 27-1049): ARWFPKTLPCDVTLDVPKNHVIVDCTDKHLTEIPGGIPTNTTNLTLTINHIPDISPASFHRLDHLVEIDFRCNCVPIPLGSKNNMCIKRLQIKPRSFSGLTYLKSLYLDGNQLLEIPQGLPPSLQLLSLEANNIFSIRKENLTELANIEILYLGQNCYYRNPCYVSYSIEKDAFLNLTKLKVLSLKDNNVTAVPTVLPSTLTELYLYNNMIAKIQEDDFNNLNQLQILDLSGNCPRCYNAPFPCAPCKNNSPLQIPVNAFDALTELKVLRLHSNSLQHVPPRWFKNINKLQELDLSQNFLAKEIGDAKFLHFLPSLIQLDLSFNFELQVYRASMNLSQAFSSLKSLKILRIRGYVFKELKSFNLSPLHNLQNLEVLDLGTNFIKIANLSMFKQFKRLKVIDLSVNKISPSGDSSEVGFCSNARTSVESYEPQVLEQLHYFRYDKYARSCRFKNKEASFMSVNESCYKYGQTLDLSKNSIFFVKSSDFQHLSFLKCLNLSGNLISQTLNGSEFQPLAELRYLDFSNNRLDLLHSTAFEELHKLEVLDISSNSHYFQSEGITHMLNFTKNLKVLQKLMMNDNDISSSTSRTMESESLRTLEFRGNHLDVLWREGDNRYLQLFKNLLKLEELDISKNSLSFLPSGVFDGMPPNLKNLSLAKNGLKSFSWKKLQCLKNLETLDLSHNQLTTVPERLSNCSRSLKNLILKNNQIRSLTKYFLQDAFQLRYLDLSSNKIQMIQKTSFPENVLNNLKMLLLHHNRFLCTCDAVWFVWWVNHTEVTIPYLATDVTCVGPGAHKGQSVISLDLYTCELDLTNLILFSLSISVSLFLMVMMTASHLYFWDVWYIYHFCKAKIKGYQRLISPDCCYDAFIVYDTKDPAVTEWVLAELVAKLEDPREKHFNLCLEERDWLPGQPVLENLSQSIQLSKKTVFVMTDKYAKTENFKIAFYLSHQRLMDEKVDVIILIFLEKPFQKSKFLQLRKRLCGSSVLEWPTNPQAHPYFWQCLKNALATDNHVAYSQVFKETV
Assay: HEK Cell Assay (TLR7/NFKb reporter, Steady-Glo luciferase readout)
Format: cell-based
Conditions: 30 min compound preincubation, then R*48 agonist for 5 hours, read-out: Potency
Procedure, shortened: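 Steady-Glo luminescence after 5 h stimulation with R*48 agonist, following 30 min compound preincubation. Assay run in HEK cells carrying a TLR7/NFKb luciferase reporter, plated at 5000 cells/well and grown 24 h at 37° C (10% CO2) before treatment.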

| Compound | pIC50 |
| --- | --- |
| COc1ccc(N2C[C@@H](C)C[C@@H](NC(=O)C(O)C(C)C)C2)c2nccnc12 (stereo in doubt) [Compound 201, (2R)-2-hydroxy-N-[(3R,5S)-1-(8-methoxyquinoxalin-5-yl)-5 methylpiperidin-3-yl]-3-methylbutanamide] | 5.00 to 6.00 |
| CCN(CC)CCNC(=O)C1CCN(c2ccnc3ncccc23)CC1 [Compound 1, N-(2-(diethylamino)ethyl)-1-(1,8-naphthyridin-4-yl)piperidine-4-carboxamide] | < 5.00 |
| CCN(CC)C1CCN(C(=O)C2CCN(c3ccnc4nccnc34)CC2)CC1 [Compound 2, (4-(diethylamino)piperidin-1-yl)(1-(pyrido[2,3-b]pyrazin-8-yl)piperidin-4-yl)methanone] | 5.00 to 6.00 |
| Cn1ncc2c(N3CCC(C(=O)NCCN4CCCCC4)CC3)ncnc21 [Compound 3, 1-(1-methyl-1H-pyrazolo[3,4-d]pyrimidin-4-yl)-N-(2-(piperidin-1-yl)ethyl)piperidine-4-carboxamide] | 5.00 to 6.00 |
| CCN(CC)C1CCN(CC2CCN(c3ccnc4nccnc34)CC2)CC1 [Compound 4, N,N-diethyl-1-((1-(pyrido[2,3-b]pyrazin-8-yl)piperidin-4-yl)methyl)piperidin-4-amine] | 5.00 to 6.00 |
| CCN(CC)C1CCN(CC2CCN(c3ccnc4ccccc34)CC2)CC1 [Compound 5, N,N-diethyl-1-((1-(quinolin-4-yl)piperidin-4-yl)methyl)piperidin-4-amine] | 5.00 to 6.00 |
| c1ccc2c(N3CCC(COCCN4CCCCC4)CC3)ccnc2c1 [Compound 6, 4-(4-[[2-(piperidin-1-yl)ethoxy]methyl]piperidin-1-yl)quinoline] | 5.00 to 6.00 |
| c1ccc2c(N3CCC(CNCCN4CCOCC4)CC3)ccnc2c1 [Compound 7, 2-morpholino-N-((1-(quinolin-4-yl)piperidin-4-yl)methyl)ethanamine] | < 5.00 |
| O=C(CN1CCCCC1)NCC1CCN(c2ccnc3ccccc23)CC1 [Compound 8, 2-(Piperidin-1-yl)-N-((1-(quinolin-4-yl)piperidin-4-yl)methyl)acetamide] | 5.00 to 6.00 |
| Cc1cc2c(N3C[C@@H](C)C[C@@H](N)C3)ccnc2n1C [Compound 9, (3R,5S)-1-(1,2-dimethyl-1H-pyrrolo[2,3-b]pyridin-4-yl)-5-methylpiperidin-3-amine] | < 5.00 |
| C[C@H]1C[C@@H](N)CN(c2ccnc3ccccc23)C1 [Compound 11, (3R,5S)-5-methyl-1-(quinolin-4-yl)piperidin-3-amine] | 5.00 to 6.00 |
| Cc1cc2c(N3C[C@@H](C)C[C@@H](NC(=O)CO)C3)ccnc2n1C [Compound 13, N-((3R,5S)-1-(1,2-dimethyl-1H-pyrrolo[2,3-b]pyridin-4-yl)-5-methylpiperidin-3-yl)-2-hydroxyacetamide] | < 5.00 |
| C[C@H]1C[C@@H](NC(=O)CO)CN(c2ccnc3ccccc23)C1 [Compound 14, 2-hydroxy-N-((3R,5S)-5-methyl-1-(quinolin-4-yl)piperidin-3-yl)acetamide] | < 5.00 |
| C[C@H]1C[C@@H](NC(=O)CO)CN(c2ccnc3nccnc23)C1 [Compound 15, 2-hydroxy-N-((3R,5S)-5-methyl-1-(pyrido[2,3-b]pyrazin-8-yl)piperidin-3-yl)acetamide] | < 5.00 |
| CN[C@@H]1C[C@H](C)CN(c2ccnc3nccnc23)C1 [Compound 17, (3R,5S)—N,5-dimethyl-1-(pyrido[2,3-b]pyrazin-8-yl)piperidin-3-amine] | < 5.00 |
| COCCN[C@@H]1C[C@H](C)CN(c2ccnc3nccnc23)C1 [Compound 18, (3R,5S)—N-(2-methoxyethyl)-5-methyl-1-(pyrido[2,3-b]pyrazin-8-yl)piperidin-3-amine] | < 5.00 |
| CC(C)[C@H](O)C(=O)N[C@@H]1C[C@H](C)CN(c2ccnc3nccnc23)C1 [Compound 22, (S)-2-hydroxy-3-methyl-N-((3R,5S)-5-methyl-1-(pyrido[2,3-b]pyrazin-8-yl)piperidin-3-yl)butanamide] | 5.00 to 6.00 |
| CC(C)[C@@H](O)C(=O)N[C@@H]1C[C@H](C)CN(c2ccnc3nccnc23)C1 [Compound 23, (R)-2-hydroxy-3-methyl-N-((3R,5S)-5-methyl-1-(pyrido[2,3-b]pyrazin-8-yl)piperidin-3-yl)butanamide] | < 5.00 |
| C[C@H]1C[C@@H](NC(=O)[C@@H](C)N)CN(c2ccnc3nccnc23)C1 [Compound 26, (R)-2-amino-N-((3R,5S)-5-methyl-1-(pyrido[2,3-b]pyrazin-8-yl)piperidin-3-yl)propanamide] | 5.00 to 6.00 |
| C[C@H]1C[C@@H](NC(=O)[C@H](C)N)CN(c2ccnc3nccnc23)C1 [Compound 27, (S)-2-amino-N-((3R,5S)-5-methyl-1-(pyrido[2,3-b]pyrazin-8-yl)piperidin-3-yl)propanamide] | 5.00 to 6.00 |
| CNCC(=O)N[C@@H]1C[C@H](C)CN(c2ccnc3nccnc23)C1 [Compound 29, N-((3R,5S)-5-methyl-1-(pyrido[2,3-b]pyrazin-8-yl)piperidin-3-yl)-2-(methylamino)acetamide] | < 5.00 |
| C[C@H]1C[C@@H](NC(=O)C2(N)CC2)CN(c2ccnc3nccnc23)C1 [Compound 30, 1-amino-N-((3R,5S)-5-methyl-1-(pyrido[2,3-b]pyrazin-8-yl)piperidin-3-yl)cyclopropanecarboxamide hydrochloride] | < 5.00 |

Second part, the compound after the results:

| pIC50 | Compound |
| --- | --- |
| 5.00 to 6.00 | CC1CC(CN2CCN(C)CC2)CN(c2ccc(C(F)(F)F)c3ncccc23)C1 (single isomer, unassigned) [Compound 534, trans-5-[3-Methyl-5-(4-methyl-piperazin-1-ylmethyl)-piperidin-1-yl]-8-trifluoromethyl-quinoline] |
| 5.00 to 6.00 | CN1CCC(CNC(=O)C2CN(c3ccc(C#N)c4ncccc34)CC(F)(F)C2)CC1 (single isomer, unassigned) [Compound 545] |
| > 6.00 | CN1CCC(CNC(=O)C2CN(c3ccc(C#N)c4ncccc34)CC(F)(F)C2)CC1 (single isomer, unassigned) [Compound 546] |
| > 6.00 | C[C@H]1C[C@@H](N)CN(c2ccnc3nccnc23)C1 [Compound 10, (3R,5S)-5-methyl-1-(pyrido[2,3-b]pyrazin-8-yl)piperidin-3-amine] |
| > 6.00 | C[C@H]1C[C@@H](N)CN(c2ccc(C#N)c3nccnc23)C1 [Compound 12, 8-((3R,5S)-3-amino-5-methylpiperidin-1-yl)quinoxaline-5-carbonitrile] |
| > 6.00 | CN[C@@H]1C[C@H](C)CN(c2ccc(C#N)c3nccnc23)C1 [Compound 16, 8-((3S,5R)-3-methyl-5-(methylamino)piperidin-1-yl)quinoxaline-5-carbonitrile hydrochloride] |
| > 6.00 | COCCN[C@@H]1C[C@H](C)CN(c2ccc(C#N)c3nccnc23)C1 [Compound 19, 8-((3R,5S)-3-(2-methoxyethylamino)-5-methylpiperidin-1-yl)quinoxaline-5-carbonitrile] |
| > 6.00 | CC(C)[C@H](O)C(=O)N[C@@H]1C[C@H](C)CN(c2ccc(C#N)c3nccnc23)C1 [Compound 20, (S)—N-((3R,5S)-1-(8-cyanoquinoxalin-5-yl)-5-methylpiperidin-3-yl)-2-hydroxy-3-methylbutanamide] |
| > 6.00 | CC(C)[C@@H](O)C(=O)N[C@@H]1C[C@H](C)CN(c2ccc(C#N)c3nccnc23)C1 [Compound 21, (R)—N-((3R,5S)-1-(8-cyanoquinoxalin-5-yl)-5-methylpiperidin-3-yl)-2-hydroxy-3-methylbutanamide] |
| > 6.00 | C[C@H]1C[C@@H](NC(=O)[C@@H](C)N)CN(c2ccc(C#N)c3nccnc23)C1 [Compound 24, (R)-2-amino-N-((3R,5S)-1-(8-cyanoquinoxalin-5-yl)-5-methylpiperidin-3-yl)propanamide] |
| > 6.00 | C[C@H]1C[C@@H](NC(=O)[C@H](C)N)CN(c2ccc(C#N)c3nccnc23)C1 [Compound 25, (S)-2-amino-N-((3R,5S)-1-(8-cyanoquinoxalin-5-yl)-5-methylpiperidin-3-yl)propanamide] |
| > 6.00 | CNCC(=O)N[C@@H]1C[C@H](C)CN(c2ccc(C#N)c3nccnc23)C1 [Compound 28, N-((3R,5S)-1-(8-cyanoquinoxalin-5-yl)-5-methylpiperidin-3-yl)-2-(methylamino)acetamide hydrochloride] |
